What all share (format): biochemical
Assay [1] deals with T1, human vanin-1 (Homo sapiens (Human), UniProt O95497). The assay can be described thus: Human Vanin-1 Enzyme Assay 1. Conditions: 25 pM human vanin-1, 50 uM pantetheine 7-amino-4-trifluoromethylcoumarin, 30 min preincubation, 60 min. Put shortly: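 Purified His6/FLAG-tagged extracellular domain of human vanin-1, secreted from CHO cells, at 25 pM final in 50 mM Tris-HCl pH 8.0, 50 mM KCl, 0.005% Brij-35, 1.6 mM cysteamine, 0.5% DMSO. Inhibitor preincubated 30 min at room temperature; 50 uM pantetheine-AFC substrate, 60 min, fluorescence at 405/510 nm; 11-point four-fold dilution series.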
T1 sequence (O95497 22-491): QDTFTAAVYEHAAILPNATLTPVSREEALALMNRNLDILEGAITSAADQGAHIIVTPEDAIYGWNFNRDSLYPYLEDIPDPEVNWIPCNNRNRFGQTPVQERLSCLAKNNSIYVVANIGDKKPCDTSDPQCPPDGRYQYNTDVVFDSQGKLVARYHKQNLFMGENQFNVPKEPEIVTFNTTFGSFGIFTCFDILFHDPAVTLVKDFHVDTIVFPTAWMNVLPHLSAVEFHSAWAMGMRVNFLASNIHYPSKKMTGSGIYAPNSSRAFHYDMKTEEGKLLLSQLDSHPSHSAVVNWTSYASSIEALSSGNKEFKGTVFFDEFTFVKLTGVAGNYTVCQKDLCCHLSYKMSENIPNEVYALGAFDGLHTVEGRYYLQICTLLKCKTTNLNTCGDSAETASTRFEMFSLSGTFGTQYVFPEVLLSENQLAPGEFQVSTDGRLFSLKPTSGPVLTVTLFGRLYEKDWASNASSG

Assay [2] addresses T1, human vanin-1. The assay can be described thus: Human Vanin-1 Enzyme Assay 2. Conditions: 1 nM human vanin-1, 10 uM substrate, 45 min. Here is the method:
Human Vanin-1 Enzyme Assay 2.
The in vitro assay measures enzymatic cleavage of the fluorescently-labeled vanin substrate, pantetheine 7-amino-4-trifluoromethylcoumarin, by human vanin-1.
The vanin-1 protein was prepared in-house from a construct expressing the extracellular domain of human vanin-1 (GenBank ID NM_004666) preceded N-terminally by the honey bee melittin signal peptide, a GSG linker sequence, a His6X tag and a FLAG tag. The secreted, soluble enzyme was purified from the conditioned medium from a CHO cell line stably expressing the resulting protein. Enzyme purification was performed through sequential Ni NTA and size-exclusion chromatography steps.
On the day of the assay, dose response plates were prepared by diluting the inhibitors in DMSO at compound concentration 100-fold the final in-assay concentration. Concentration series were prepared by serially diluting in DMSO in a half-log series for a total of 11 data points. Intermediate compound plates containing compound in 10% DMSO were then created by diluting the compounds 10-fold in assay buffer consisting of 50 mM Tris-HCl pH=8.0, 50 mM KCl, 0.005% Brij-35 and 1.5 mM cysteamine. To begin the assay 3 μL were transferred from the intermediate compound plate to the assay plate.
A working solution of human vanin-1 was prepared by diluting the enzyme stock to 1.25 nM in assay buffer. Next, 24 μL of the vanin-1 working solution were transferred to the assay plate. The enzyme reaction was then initiated by the addition of 3 μL of 100 μM pantetheine 7-amino-4-trifluoromethylcoumarin prepared in assay buffer. The final concentrations in the assay were 1 nM human vanin-1 and 10 uM substrate. The final concentration of DMSO was 1%. The assay plates were incubated for 45 minutes and before they were read on a Spectramax M5 using a 405 nm excitation wavelength and a 505 nm emission wavelength for detection.

Assay [3] has as its target T1, human vanin-1. The experiment in a line: Human Vanin-1 Enzyme Assay 3. Conditions: 2 nM human vanin-1, 10 uM substrate, 15 min. In a few lines: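 His/FLAG-tagged extracellular domain of human vanin-1 from CHO cells, used at 2 nM final, with 10 uM pantetheine-AFC substrate. Buffer: 50 mM Tris-HCl pH 8.0, 50 mM KCl, 0.005% Brij-35, 1.5 mM cysteamine, 1% DMSO. 15 min at room temperature; fluorescence read at 405/505 nm across an 11-point 2-fold dilution series.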

Structures are written as SMILES.

The term IC50 denotes the point on the concentration scale where inhibition reaches its midpoint. Read a low IC50 as inhibition by little substance. In the case of `CC(C)(Nc1ncc(C(=O)c2cccc(C#N)c2)cn1)c1ccccc1` [Example 3, 3-({2-[(2-phenylpropan-2-yl)amino]pyrimidin-5-yl}carbonyl)benzonitrile], the IC50 against human vanin-1 [1] came to 0.0136 µM; against human vanin-1 [2] it was 0.0153 µM; against human vanin-1 [3], 0.075 µM.

For `O=C(c1cnc(NCc2cnccn2)nc1)c1cccc(C(F)(F)F)c1` [Example 11, {2-[(pyrazin-2-ylmethyl)amino]pyrimidin-5-yl}[3-(trifluoromethyl)phenyl]methanone], the IC50 was 0.0064 µM against human vanin-1 [1], 0.009 µM at human vanin-1 [2] and less than 0.0062 µM on human vanin-1 [3].

Regarding `O=C(c1cnc(NCc2cccnc2)nc1)c1cccc(C(F)(F)F)c1` [Example 12, {2-[(pyridin-3-ylmethyl)amino]pyrimidin-5-yl}[3-(trifluoromethyl)phenyl]methanone], the half-inhibitory concentration (IC50) amounted to 0.0019 µM on human vanin-1 [1], 0.0029 µM at human vanin-1 [2] and 0.0005 µM against human vanin-1 [3].

For `CS(=O)(=O)c1cccc(C(=O)c2cnc(NCc3cccnc3)nc2)c1` [Example 13, [3-(methylsulfonyl)phenyl]{2-[(pyridin-3-ylmethyl)amino]pyrimidin-5-yl}methanone], the IC50 is 0.002 µM on human vanin-1 [2] and greater than 0.0261 µM against human vanin-1 [3].

With `Cc1cccc(C(=O)c2cnc(NCc3cccnc3)nc2)c1` [Example 14, (3-methylphenyl){2-[(pyridin-3-ylmethyl)amino]pyrimidin-5-yl}methanone], the IC50 on human vanin-1 [1] is 0.0478 µM; at human vanin-1 [2] it was 0.0315 µM; against human vanin-1 [3] it was less than 0.013 µM.

Regarding `O=C(c1cnc(NCc2cccnc2)nc1)c1ccccc1F` [Example 15, (2-fluorophenyl){2-[(pyridin-3-ylmethyl)amino]pyrimidin-5-yl}methanone], the results for the IC50 against human vanin-1 [1], at human vanin-1 [2] and against human vanin-1 [3] were 0.329 µM, 0.0924 µM and 0.17 µM, respectively.

In the case of `Cc1cccc(C(=O)c2cnc(NCc3ccc(C(N)=O)cc3)nc2)c1` [Example 23, 4-({[5-(3-methylbenzoyl)pyrimidin-2-yl]amino}methyl) benzamide], the values for the IC50 against human vanin-1 [1], at human vanin-1 [2] and on human vanin-1 [3] were 0.178 µM, 0.0987 µM and 0.16 µM, respectively.

Regarding `O=C(c1cnc(NCc2ccccc2)nc1)c1cccc(Cl)c1` [Example 24, [2-(benzylamino)pyrimidin-5-yl](3-chlorophenyl) methanone], the IC50 worked out at 1.24 µM at human vanin-1 [1], 0.317 µM at human vanin-1 [2] and 0.274 µM at human vanin-1 [3].

Take `CC(C)(Nc1ncc(C(=O)c2cccc(Cl)c2)cn1)c1ccccc1` [Example 25, (3-chlorophenyl){2-[(2-phenylpropan-2-yl)amino]pyrimidin-5-yl}methanone]: the results for the half-maximal inhibitory concentration (IC50) at human vanin-1 [1], at human vanin-1 [2] and against human vanin-1 [3] were 0.0741 µM, 0.0645 µM and 0.0115 µM, respectively.

On to `N#Cc1cccc(C(=O)c2cnc(NCc3ccccc3)nc2)c1` [Example 27, 3-{[2-(benzylamino)pyrimidin-5-yl]carbonyl} benzonitrile], for which the IC50 against human vanin-1 [1] came to 0.0797 µM; against human vanin-1 [2], 0.0404 µM; on human vanin-1 [3], 0.0522 µM.

With `N#Cc1cccc(C(=O)c2cnc(NCc3ccc(Cl)cc3)nc2)c1` [Example 28, 3-({2-[(4-chlorobenzyl)amino]pyrimidin-5-yl}carbonyl) benzonitrile], the results for the concentration for half-maximal inhibition (IC50) at human vanin-1 [1], against human vanin-1 [2] and against human vanin-1 [3] were 0.0382 µM, 0.0218 µM and 0.0084 µM, respectively.

For the compound `COc1ccc(CNc2ncc(C(=O)c3cccc(C#N)c3)cn2)cc1` [Example 29, 3-({2-[(4-methoxybenzyl)amino]pyrimidin-5-yl}carbonyl) benzonitrile], the IC50 on human vanin-1 [1] was determined as 0.122 µM; on human vanin-1 [2], 0.0727 µM; on human vanin-1 [3], 0.107 µM.

As to `N#Cc1cccc(C(=O)c2cnc(NCc3ccc(F)cc3F)nc2)c1` [Example 30, 3-({2-[(2,4-difluorobenzyl)amino]pyrimidin-5-yl}carbonyl) benzonitrile], the IC50 was 0.0364 µM at human vanin-1 [1], 0.0355 µM against human vanin-1 [2] and 0.0168 µM against human vanin-1 [3].

As for `COc1cccc(C(=O)c2cnc(NCc3ccc(F)cc3)nc2)c1` [Example 37, {2-[(4-fluorobenzyl)amino]pyrimidin-5-yl}(3-methoxyphenyl) methanone], the IC50 came to 0.226 µM at human vanin-1 [2] and 0.0772 µM on human vanin-1 [3].

On to `O=C(c1cnc(NCc2cccnn2)nc1)c1cccc(C(F)(F)F)c1` [Example 67, {2-[(pyridazin-3-ylmethyl)amino]pyrimidin-5-yl}[3-(trifluoromethyl)phenyl]methanone], for which the figures for the half-maximal inhibitory concentration (IC50) on human vanin-1 [2] and at human vanin-1 [3] were 0.0479 µM and 0.0816 µM, respectively.

With `Cn1cc(C(=O)c2cnc(NCc3cccnc3)nc2)cn1` [Example 103, (1-methyl-1H-pyrazol-4-yl){2-[(pyridin-3-ylmethyl)amino]pyrimidin-5-yl}methanone], the IC50 against human vanin-1 [2] was found to be 0.563 µM; on human vanin-1 [3], 0.381 µM.

In the case of `O=C(c1cnc(NCc2cncnc2)nc1)c1cccc(C(F)(F)F)c1` [Example 119, {2-[(pyrimidin-5-ylmethyl)amino]pyrimidin-5-yl}[3-(trifluoromethyl)phenyl]methanone], the 50% inhibitory concentration (IC50) against human vanin-1 [2] was 0.0113 µM; against human vanin-1 [3], 0.0061 µM.

In the case of `CS(=O)(=O)c1cccc(C(=O)c2cnc(NCc3ccc(C(N)=O)cc3)nc2)c1` [Example 125, 4-[({5-[3-(methylsulfonyl)benzoyl]pyrimidin-2-yl}amino)methyl] benzamide], the IC50 on human vanin-1 [2] was 0.0219 µM; on human vanin-1 [3], greater than 1.25 µM.

Consider `N#Cc1cccc(C(=O)c2ccc(NCc3cncnc3)nc2)c1` [Example 140, 3-({6-[(pyrimidin-5-ylmethyl)amino]pyridin-3-yl}carbonyl) benzonitrile], for which the IC50 was 0.144 µM at human vanin-1 [1] and 0.0644 µM on human vanin-1 [2].

On to `COc1cccc(C(=O)c2cnc(NC(C)c3cncnc3)nc2)c1` (centres unmarked) [Example 142, (3-methoxyphenyl) (2-{[1-(pyrimidin-5-yl)ethyl]amino}pyrimidin-5-yl)methanone], for which the IC50 is 0.0171 µM on human vanin-1 [1] and 0.0343 µM on human vanin-1 [2].

Take `COc1cccc(C(=O)c2cnc(NCc3cncnc3)nc2)c1` [Example 143, (3-methoxyphenyl) {2-[(pyrimidin-5-ylmethyl)amino]pyrimidin-5-yl}methanone]: the IC50 amounted to 0.0815 µM at human vanin-1 [1] and 0.11 µM at human vanin-1 [2].

Regarding `CC(Nc1ccc(C(=O)c2cccc(C#N)c2)cn1)c1cncnc1` (centres unmarked) [Example 144, 3-[(6-{[1-(pyrimidin-5-yl)ethyl]amino}pyridin-3-yl)carbonyl] benzonitrile], the figures for the IC50 at human vanin-1 [1] and at human vanin-1 [2] were 0.0125 µM and 0.0198 µM, respectively.

For the compound `O=C(c1cnc(NCc2cncnc2)nc1)c1ccc2c(c1)OCCO2` [Example 145, 2,3-dihydro-1,4-benzodioxin-6-yl{2-[(pyrimidin-5-ylmethyl)amino]pyrimidin-5-yl}methanone], the IC50 against human vanin-1 [1] was 0.329 µM; against human vanin-1 [2], 0.486 µM.

Consider `COc1cccc(C(=O)c2cnc(NCc3ccc(N4CCN(C)CC4)cc3)nc2)c1` [Example 154, (3-methoxyphenyl) (2-{[4-(4-methylpiperazin-1-yl)benzyl]amino}pyrimidin-5-yl)methanone], for which the IC50 against human vanin-1 [2] was 6.41 µM; at human vanin-1 [3], 3.79 µM.

On to `Cn1ncc2cc(C(=O)c3cnc(NCc4cncnc4)nc3)ccc21` [Example 159, (1-methyl-1H-indazol-5-yl){2-[(pyrimidin-5-ylmethyl)amino]pyrimidin-5-yl}methanone], for which the figures for the IC50 at human vanin-1 [1] and at human vanin-1 [2] were 2.75 µM and 3.08 µM, respectively.

On to `COc1ccc(C(=O)c2cnc(NC(C)c3ccc(C(N)=O)cc3)nc2)cc1` (centres unmarked) [Example 160, 4-(1-{[5-(4-methoxybenzoyl)pyrimidin-2-yl]amino}ethyl) benzamide], for which the IC50 on human vanin-1 [1] was 3.44 µM; on human vanin-1 [2] it was 7.15 µM.

As for `N#Cc1cccc(C(=O)c2cnc(NCC3CCOCC3)nc2)c1` [Example 163, 3-({2-[(tetrahydro-2H-pyran-4-ylmethyl)amino]pyrimidin-5-yl}carbonyl) benzonitrile], the IC50 against human vanin-1 [1] amounted to 2.88 µM; against human vanin-1 [2] it was 2.23 µM.

As for `CN1CCC(CNc2ncc(C(=O)c3cccc(C#N)c3)cn2)CC1` [Example 164, 3-[(2-{[(1-methylpiperidin-4-yl)methyl]amino}pyrimidin-5-yl)carbonyl] benzonitrile], the IC50 on human vanin-1 [1] worked out at 1.81 µM; on human vanin-1 [2], 8.57 µM.
